Earlier results in patent US20070154935A1, “HUMAN OBESITY SUSCEPTIBILITY GENE AND USES THEREOF” (INTEGRAGEN, priority 2002, published 2007).

Tests used:
healthy controls = settings: intranasal application
[1] = tested on: massively obese child with leptin deficiency mutation; settings: one child with leptin deficiency mutation

| Substance | body fat mass (healthy controls) | plasma leptin concentrations (healthy controls) | weight (healthy controls) | treatment outcome of morbid obesity [1] |
| --- | --- | --- | --- | --- |
| adrenocorticotropin4-10 (MEHFRWG; Corticotropin; UniProt P01189 141-147, looked up, fragment) [ACTH4-10] | reduced | reduced | reduced |  |
| recombinant leptin: recombinant leptin given to a child with a leptin deficiency mutation |  |  |  | treated successfully |
